PMC12305662, “Fragment-Based Development of Small Molecule Inhibitors Targeting Mycobacterium tuberculosis Cholesterol Metabolism” (Journal of Medicinal Chemistry, 2025)
≈ marks a conversion by molar mass, not a printed value. Where two headings read alike, the source gives them in different places.

How the values were obtained:
[1] = target: T1, CYP125 (Mycobacterium tuberculosis, UniProt P9WPP1); experiment: LC-MS substrate turnover assay (cholest-4-en-3-one); assay type: biochemical
[2] = tested on: Mtb H37Rv; experiment: Extracellular Mtb growth on cholesterol, MABA MIC99; assay type: cell-based, Mycobacterium tuberculosis; settings: Mycobacterium tuberculosis, H37RV, 336 h; cholesterol as sole carbon source; 2 weeks post-compound treatment; read-out: MABA-MIC99 (W2) H37Rv, cholesterol
[3] = target: T1, CYP125; experiment: biochemical; assay type: binding; settings: read-out: KD (μM) CYP125
[4] = tested on: Mtb H37Rv; experiment: Depletion of intracellular ATP (BacTiter Glo), Mtb on cholesterol; assay type: cell-based, Mycobacterium tuberculosis; settings: Mycobacterium tuberculosis, H37RV, cholesterol as sole carbon source
[5] = target: T1, CYP125; assay type: binding; settings: for Δλmax (nm) CYP125, fragment screen: fragment 1 mM, P450 4-6 µM, Soret shift relative to DMSO (393 nm)
[6] = target: CYP126 (Mycobacterium tuberculosis, UniProt P9WPN9); settings: fragment 1 mM, P450 4-6 µM; relative to DMSO (418 nm)
[7] = target: CYP143 (Mycobacterium tuberculosis, UniProt P9WPL3); settings: fragment 1 mM, P450 4-6 µM; relative to DMSO (416 nm)
[8] = target: CYP144 (Mycobacterium tuberculosis, UniProt P9WPL1); settings: fragment 1 mM, P450 4-6 µM; relative to DMSO (421 nm)
[9] = target: CYP142 (Mycobacterium tuberculosis, UniProt P9WPL5); settings: fragment 1 mM, P450 4-6 µM; relative to DMSO (418.5 nm)
[10] = target: CYP124 (Mycobacterium tuberculosis, UniProt P9WPP3); settings: fragment 1 mM, P450 4-6 µM; relative to DMSO (419 nm)
[11] = target: CYP121 (Mycobacterium tuberculosis, UniProt P9WPP7); settings: fragment 1 mM, P450 4-6 µM; relative to DMSO (417 nm)
CYP121, sequence (P9WPP7 whole entry, the tested form may be a part): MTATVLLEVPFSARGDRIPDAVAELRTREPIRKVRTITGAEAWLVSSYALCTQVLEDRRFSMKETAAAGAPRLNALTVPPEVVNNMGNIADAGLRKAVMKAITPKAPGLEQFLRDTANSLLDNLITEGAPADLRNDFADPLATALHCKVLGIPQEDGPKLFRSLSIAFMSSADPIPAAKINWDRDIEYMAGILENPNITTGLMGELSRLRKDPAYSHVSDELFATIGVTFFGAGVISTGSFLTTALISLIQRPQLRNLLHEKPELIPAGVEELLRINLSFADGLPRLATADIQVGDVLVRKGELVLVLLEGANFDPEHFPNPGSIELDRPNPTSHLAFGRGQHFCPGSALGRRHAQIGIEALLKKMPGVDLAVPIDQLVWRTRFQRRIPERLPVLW

CYP126, sequence (P9WPN9 whole entry, the tested form may be a part): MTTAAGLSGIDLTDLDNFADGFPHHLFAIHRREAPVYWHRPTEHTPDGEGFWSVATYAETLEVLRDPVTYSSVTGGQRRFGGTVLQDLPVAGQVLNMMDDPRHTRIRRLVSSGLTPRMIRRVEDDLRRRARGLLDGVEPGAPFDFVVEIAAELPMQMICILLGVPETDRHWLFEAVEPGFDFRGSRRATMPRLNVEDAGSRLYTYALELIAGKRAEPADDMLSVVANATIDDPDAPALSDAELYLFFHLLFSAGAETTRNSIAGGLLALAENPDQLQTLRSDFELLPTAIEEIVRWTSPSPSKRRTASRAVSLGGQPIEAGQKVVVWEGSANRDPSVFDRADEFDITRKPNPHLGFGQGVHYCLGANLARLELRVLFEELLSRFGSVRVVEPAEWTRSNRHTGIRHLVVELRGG
CYP143, sequence (P9WPL3 whole entry, the tested form may be a part): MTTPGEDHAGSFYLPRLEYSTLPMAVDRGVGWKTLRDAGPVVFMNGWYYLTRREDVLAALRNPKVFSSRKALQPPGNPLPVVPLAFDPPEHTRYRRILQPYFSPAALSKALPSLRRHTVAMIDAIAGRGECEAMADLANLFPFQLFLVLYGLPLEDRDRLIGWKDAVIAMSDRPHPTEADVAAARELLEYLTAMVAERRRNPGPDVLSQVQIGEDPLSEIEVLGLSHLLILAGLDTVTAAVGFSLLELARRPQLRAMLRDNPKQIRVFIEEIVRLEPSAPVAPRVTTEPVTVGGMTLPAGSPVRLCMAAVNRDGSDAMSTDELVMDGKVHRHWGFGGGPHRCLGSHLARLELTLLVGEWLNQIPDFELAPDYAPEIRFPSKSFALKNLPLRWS
CYP144, sequence (P9WPL1 whole entry, the tested form may be a part): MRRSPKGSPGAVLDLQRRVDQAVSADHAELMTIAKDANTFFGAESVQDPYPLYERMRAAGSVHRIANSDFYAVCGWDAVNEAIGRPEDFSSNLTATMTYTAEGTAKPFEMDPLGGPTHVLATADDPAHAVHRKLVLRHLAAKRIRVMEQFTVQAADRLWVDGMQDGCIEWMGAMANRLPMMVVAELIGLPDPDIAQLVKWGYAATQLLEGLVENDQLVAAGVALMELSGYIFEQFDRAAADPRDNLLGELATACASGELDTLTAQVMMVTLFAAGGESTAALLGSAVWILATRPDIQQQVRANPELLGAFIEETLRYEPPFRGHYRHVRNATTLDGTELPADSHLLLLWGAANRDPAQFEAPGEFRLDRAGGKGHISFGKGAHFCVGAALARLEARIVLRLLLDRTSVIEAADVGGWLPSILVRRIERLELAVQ
CYP124, sequence (P9WPP3 whole entry, the tested form may be a part): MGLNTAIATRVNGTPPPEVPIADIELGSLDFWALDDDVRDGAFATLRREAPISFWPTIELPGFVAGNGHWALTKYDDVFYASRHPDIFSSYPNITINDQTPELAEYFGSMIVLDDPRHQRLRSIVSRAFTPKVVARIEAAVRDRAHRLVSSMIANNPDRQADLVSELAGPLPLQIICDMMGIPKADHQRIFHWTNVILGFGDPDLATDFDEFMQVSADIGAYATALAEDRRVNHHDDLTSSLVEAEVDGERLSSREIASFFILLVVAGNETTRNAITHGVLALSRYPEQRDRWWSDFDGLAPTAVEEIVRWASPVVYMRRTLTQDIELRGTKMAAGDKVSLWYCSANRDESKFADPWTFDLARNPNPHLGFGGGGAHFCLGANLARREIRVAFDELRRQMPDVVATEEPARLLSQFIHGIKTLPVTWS
CYP142, sequence (P9WPL5 whole entry, the tested form may be a part): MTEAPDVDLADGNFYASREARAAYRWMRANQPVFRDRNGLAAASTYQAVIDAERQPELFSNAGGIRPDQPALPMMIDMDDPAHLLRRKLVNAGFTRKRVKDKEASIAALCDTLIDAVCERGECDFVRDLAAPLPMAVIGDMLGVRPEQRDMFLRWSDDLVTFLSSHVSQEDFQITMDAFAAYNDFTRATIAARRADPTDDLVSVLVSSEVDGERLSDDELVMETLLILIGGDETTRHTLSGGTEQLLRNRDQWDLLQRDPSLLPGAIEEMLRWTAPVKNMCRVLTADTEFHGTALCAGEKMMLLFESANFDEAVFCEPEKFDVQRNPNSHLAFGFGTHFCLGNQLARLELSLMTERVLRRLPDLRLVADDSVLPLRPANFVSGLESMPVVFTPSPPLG
T1 sequence (P9WPP1 whole entry): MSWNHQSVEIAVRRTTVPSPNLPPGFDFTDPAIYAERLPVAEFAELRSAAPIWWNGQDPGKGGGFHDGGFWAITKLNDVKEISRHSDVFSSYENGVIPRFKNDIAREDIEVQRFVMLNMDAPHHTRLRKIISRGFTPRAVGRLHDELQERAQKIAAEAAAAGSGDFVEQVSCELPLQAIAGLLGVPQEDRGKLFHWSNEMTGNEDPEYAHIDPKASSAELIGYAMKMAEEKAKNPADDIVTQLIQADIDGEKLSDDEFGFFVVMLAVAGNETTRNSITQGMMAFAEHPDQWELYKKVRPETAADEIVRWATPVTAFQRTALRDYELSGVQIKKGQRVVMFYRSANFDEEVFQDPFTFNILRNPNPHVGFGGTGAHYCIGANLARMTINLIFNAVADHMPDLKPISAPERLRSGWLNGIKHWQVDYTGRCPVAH

| SMILES | IC50 ([1]; CYP125 0.5 μM, cholest-4-en-3-one 5 µM, LC-MS, read-out: CYP125A1 IC50) [µM] | Ki ([1]; estimated by Cheng-Prusoff, cholest-4-en-3-one Km CYP125 = 2.1 µM, read-out: CYP125A1 KI) [µM] | MIC99 [2] [µM] | Kd [3] [µM] | IC50 ([4]; 168 h, 1 week post-compound treatment, read-out: ATP-IC50 (W1) H37Rv, cholesterol) [µM] | IC50 ([4]; 336 h, 2 weeks post-compound treatment, read-out: ATP-IC50 (W2) H37Rv, cholesterol) [µM] | CYP125 Δλmax (nm) HS ([5]; compound 100 µM, P450 5 µM, high spin population, '-' = no HS maxima present) [nm] | CYP125 Δλmax (nm) LS ([5]; compound 100 µM, P450 5 µM, low spin population, '-' = no LS maxima present) [nm] | Δλmax (nm) CYP126, fragment screen [6] [nm] | Δλmax (nm) CYP143, fragment screen [7] [nm] | Δλmax (nm) CYP144, fragment screen [8] [nm] | Δλmax (nm) CYP142, fragment screen [9] [nm] | Δλmax (nm) CYP125, fragment screen [5] [nm] | Δλmax (nm) CYP124, fragment screen [10] [nm] | Δλmax (nm) CYP121, fragment screen [11] [nm] |
| --- | --- | --- | --- | --- | --- | --- | --- | --- | --- | --- | --- | --- | --- | --- | --- |
| COc1ccc(CNc2cccc(Cc3ccncc3)c2)cc1 [5l, N-(4-Methoxybenzyl)-3-(pyridin-4-ylmethyl)aniline] | 18 ± 1.9 | 5.4 | 19 (≈ 5.78 µg/mL) | 6.4 ± 1.1 | 0.59 | 2.3 |  |  |  |  |  |  |  |  |  |
| c1ccc(Cc2ccncc2)cc1 [1a] |  |  |  | 180 ± 6.7 |  |  | 2 | 27 |  |  |  |  |  |  |  |
| Cc1cc(C(=O)O)[nH]n1 [compound 32] |  |  |  |  |  |  |  |  | 0 | -0.5 | 0 | 0 | 0 | 0 | 0 |
| c1ccc(-c2ncc[nH]2)cc1 [compound 4] |  |  |  |  |  |  |  |  | 0 | 0 | 0 | 0 | 0 | 0 | 0 |
| Nc1ccncc1 [compound 47] |  |  |  |  |  |  |  |  | 0 | 0 | 0 | 1.5 | 0 | 0 | 0 |
| N#Cc1cccc(-n2ccnc2)c1 [compound 71] |  |  |  |  |  |  |  |  | 0 | 2.5 | 0 | 3 | 0 | 1 | 0 |
| O=C(O)c1cccc(-c2cccnc2)c1 [compound 74] |  |  |  |  |  |  |  |  | 0 | 1 | 0 | 0 | 0 | 0 | 0 |
| Cc1cc(N)n(-c2ccccc2)n1 [compound 6] |  |  |  |  |  |  |  |  | 0 | 0.5 | 0 | 0 | 0 | 0 | 0 |
| O=S(=O)(O)c1ccccn1 [compound 78] |  |  |  |  |  |  |  |  | 0 | 1 | 0 | 0 | 0 | 0 | 0 |
| Cn1nc(C(=O)O)cc1-c1ccccc1 [compound 70] |  |  |  |  |  |  |  |  | 0 | 0.5 | 0 | 0 | 0 | 2 | 0 |
| O=C(O)c1ccccc1-n1cccn1 [compound 22] |  |  |  |  |  |  |  |  | 0 | 0 | 0 | 0 | 0 | 0 | 0 |
| NC1=NN(c2ccccc2)C(=O)C1 [compound 13] |  |  |  |  |  |  |  |  | 0 | 0 | 0 | 0 | 0 | -1 | 0 |
| Clc1nccc2ccccc12 [compound 56] |  |  |  |  |  |  |  |  | 0 | -0.5 | 0 | 0 | 0 | 0 | -2 |
| Cc1ccc(S(N)(=O)=O)nc1 [compound 80] |  |  |  |  |  |  |  |  | 0 | 0 | 0 | 0 | 0 | 0 | 0 |
| Brc1c[nH]cn1 [compound 77] |  |  |  |  |  |  |  |  | 0 | 0.5 | 0 | 3 | 0 | 0 | -1 |
| c1ccc(-c2c[nH]cn2)cc1 [compound 68] |  |  |  |  |  |  |  |  | 1 | 2 | 0 | 3 | 0 | 4 | 0 |
| OB(O)c1ccccc1 [compound 33] |  |  |  |  |  |  |  |  | 0 | 4 | 0 | 0 | 0 | 0 | 0 |
| O=C(O)[C@@H]1Cc2ccccc2CN1 [compound 79] |  |  |  |  |  |  |  |  | 0 | 0 | 0 | 0 | -2 | 0 | 1 |
| Nc1ccccn1 [compound 43] |  |  |  |  |  |  |  |  | 0 | 1 | 0 | 0 | 0 | 0 | 0 |
| O=C1CCN(c2ccccc2)N1 [compound 64] |  |  |  |  |  |  |  |  | 0 | 1 | 0 | 1.5 | 0 | -1 | 0 |
| OCc1nccn1Cc1ccccc1 [compound 10] |  |  |  |  |  |  |  |  | 0 | 1 | 0 | 3 | 0 | 1 | 0 |
| Nc1cccc(Cn2cncn2)c1 [compound 5] |  |  |  |  |  |  |  |  | 0 | 1 | 0 | 1.5 | 0 | 1 | 2 |
| Nc1cc(Cl)nc(Cl)c1 [compound 28] |  |  |  |  |  |  |  |  | 0 | 0 | 0 | 0 | 0 | 0 | 0 |
| c1ccc(-c2ccn[nH]2)nc1 [compound 2] |  |  |  |  |  |  |  |  | 0 | 0 | 0 | 0 | 0 | 0 | 0 |
| OCc1ccc(Br)cn1 [compound 29] |  |  |  |  |  |  |  |  | 0 | 0.5 | 0 | 0 | 0 | 0 | 0 |
